Data set [1] relates to carrageenin-induced paw edema. Put plainly: carrageenin-induced paw edema test in the rat. Type of data set: in vivo, rat (Male Charles River). The conditions noted are these: for inhibition in vivo at 64 mg/kg: 64 mg/kg po; for inhibition in vivo at 128 mg/kg: 128 mg/kg po; for ED30: calculated from the dose-response line; for inhibition in vivo at 8 mg/kg: 8 mg/kg po; for inhibition in vivo at 16 mg/kg: 16 mg/kg po; for inhibition in vivo at 32 mg/kg: 32 mg/kg po; for reduction of carrageenin-induced edema / anti-edema activity: result in words. On the procedure: Compounds of the present invention were screened in the carrageenin-inducedpaw edema test in the rat. Acetylsalicylic acid was included in the study for reference comparison.
The method employed was the carrageenin edema test [Winter, C. A., Risley, E. A. and Nuss, G. W., Proc. Soc. exp. Biol. Med. 111:544(1962) and Halperin, B. N. and Briot, M., Arch Int. Pharmacody N. 82:247(1950)].
(§1) Male Charles River Rats weighing 145 to 180 g. were employed in the study. Food was withheld for 18 hours before the start of the test, while water was withheld only during the test. Experimental drugs with the desired dose in 3 ml. distilled water (Tween 80)/100 g. body weight were administered orally as suspensions by stomach tube. Control animals, those not receiving drugs, were given the same volume of vehicle by the same route of administration. To induce inflammation, the rear paw was injected into the plantar surface with 0.1 ml. of a 1% carrageenin solution in 0.9% saline. The right paw was also injected with 0.1 ml. of a 0.9% saline solution. At the time of sacrifice, the animals were killed by chloroform. The hind paws were rapidly amputated at tarsocrural joint and weighed on an analytical balance. In all cases the drugs were administered one hour before the paw injections and the sacrifice was performed three hours after the carrageenin injection. The difference in weight (g/100 b.w.) between the carrageenin and the saline injected paws was recorded as the degree of edema.
A comparison of the effectiveness of the test compounds and the standard reference agent, acetylsalicylic acid, in inhibiting edema resulting from the injection of carrageenin is recorded in the following Table XI.
It should be noted that ED30 refers to that dose which inhibits carrageenin-induced paw edema in 30% of the animals in the test group.

Data set [2] can be described thus: side-effects noted in the carrageenin-induced paw edema test. The data set is classed as in vivo. The conditions noted are these: rat; for Side-Effects Noted: rats died: 128 mg/kg po. On the procedure:
as §1
On the technique in general: In the carrageenan paw model, swelling and tenderness develop within hours.

`CCCCCCCCCCCCCCCCCc1nc2ccccc2n2ccnc12` [Compound 120]: in data set [1], the inhibition in vivo (as a rule, the share of the control response that was lost under treatment) at 64 mg/kg was found to be 0% and the inhibition in vivo at 128 mg/kg came out at 5%. The ED30 in data set [1] (po) was more than 128 mg/kg. The “Side-Effects Noted” value in data set [2] (po) is reported as “NONE”.

`CCCCCCCCc1nc2ccccc2n2ccnc12` [Compound 117] came in with an inhibition in vivo at 128 mg/kg in data set [1] of 0%. Moreover, in data set [1] (po), the ED30 was more than 128 mg/kg. Also, the “Side-Effects Noted” value in data set [2] (po) is recorded as “NONE”.

In data set [1], `CCCCCc1nc2ccccc2n2ccnc12` [Compound 114] displayed an inhibition in vivo at 64 mg/kg of 5% and an inhibition in vivo at 128 mg/kg of 23%. Besides, in data set [1] (po), the ED30 was more than 128 mg/kg. Also, the “Side-Effects Noted” value in data set [2] (po) was “NONE”.

Compound `CCCCCCCCCc1nc2ccccc2n2ccnc12` [Compound 118] returned an inhibition in vivo at 128 mg/kg in data set [1] of 0%. Further, in data set [1] (po), the ED30 is more than 128 mg/kg. For the same compound, the “Side-Effects Noted” value in data set [2] (po) is given as “NONE”.

Take `c1ccc2c(c1)nc(C1CCC1)c1nccn12`: in data set [1], 64 mg/kg produced 0% inhibition in vivo and testing at 128 mg/kg gave an inhibition in vivo of 64%. Moreover, in data set [1] (po), the ED30 was approximately 100 mg/kg. Further, the “Side-Effects Noted” value in data set [2] (po) is given as “Ptosis at 128 mg/kg”.

`CCc1nc2ccccc2n2ccnc12` [Compound 111] showed an inhibition in vivo at 4 mg/kg in data set [1] (4 mg/kg po) of 6%. Further, in data set [1], the inhibition in vivo at 8 mg/kg came to 23%, the inhibition in vivo at 16 mg/kg stood at 32%, the inhibition in vivo at 32 mg/kg stood at 40% and the inhibition in vivo at 64 mg/kg came out at 41%. In addition, testing at 128 mg/kg in data set [1] gave an inhibition in vivo of 57%. In data set [1] (po), the “anti-edemic activity relative to acetylsalicylic acid” value is recorded as “approximately 3 X acetylsalicylic acid” and the ED30 is 20.5 mg/kg. Further, the “reduction of carrageenin-induced edema / anti-edema activity” value in data set [1] (po, listed as CH2 CH3) is on record as “significant reductions of carrageenin-induced edema without attendant side effects”. The “reduction of carrageenin-induced edema / anti-edema activity” value in data set [1] (po, listed as ethyl analog) was “strongest anti-edemic activity”. Moreover, in data set [2] (in vivo, po, read-out: dose associated with side effects, as multiple of ED30), the selectivity ratio is approximately 3.

In data set [1], `CCCc1nc2ccccc2n2ccnc12` [Compound 112] showed an inhibition in vivo at 64 mg/kg of 0% and an inhibition in vivo at 128 mg/kg of 36%. In addition, the ED30 in data set [1] (po) was approximately 128 mg/kg.

In data set [1], `CCCCCCCc1nc2ccccc2n2ccnc12` [Compound 116] displayed an inhibition in vivo at 128 mg/kg of 0%. In addition, the ED30 in data set [1] (po) was more than 128 mg/kg. Besides, the “Side-Effects Noted” value in data set [2] (po) was “NONE”.

Regarding `c1ccc2c(c1)nc(C1CCCCC1)c1nccn12`, in data set [1], testing at 64 mg/kg gave an inhibition in vivo of 0% and the inhibition in vivo at 128 mg/kg was found to be 60%. In data set [1] (po), the ED30 is approximately 100 mg/kg. Besides, the “Side-Effects Noted” value in data set [2] (po) was “NONE”.

On to `c1ccc2c(c1)ncc1nccn12` [Compound 109, imidazo[1,2-a]quinoxaline], for which, in data set [1], the inhibition in vivo at 64 mg/kg worked out at 6% and testing at 128 mg/kg gave an inhibition in vivo of 54%. The ED30 in data set [1] (po) is approximately 100 mg/kg. Moreover, the “Side-Effects Noted: rats died” value in data set [2] is listed as 1/6.

With `C(=Cc1nc2ccccc2n2ccnc12)c1ccccc1`, in data set [1], at 128 mg/kg the inhibition in vivo was 0%. In addition, the ED30 in data set [1] (po) was more than 128 mg/kg. Further, the “Side-Effects Noted” value in data set [2] (po) is listed as “NONE”.

Regarding `CC(=O)Oc1ccccc1C(=O)O` [ASPIRIN, acetylsalicylic acid, reference compound], in data set [1], the inhibition in vivo at 32 mg/kg is 19%, testing at 64 mg/kg gave an inhibition in vivo of 32.5% and the inhibition in vivo at 128 mg/kg amounted to 41%. Further, the inhibition in vivo at 256 mg/kg in data set [1] (256 mg/kg po) came to 62%. Further, in data set [1] (po), the ED30 was 59.5 mg/kg. Also, in data set [2] (po), the “Side-Effects Noted” value is “NONE”.

For `c1ccc(OCc2nc3ccccc3n3ccnc23)cc1`, in data set [1], testing at 128 mg/kg gave an inhibition in vivo of 0%. Moreover, the ED30 in data set [1] (po) was more than 128 mg/kg. Also, in data set [2] (po), the “Side-Effects Noted” value is “NONE”.

With `CCCCCCCCCCCCCCCc1nc2ccccc2n2ccnc12` [Compound 119], 128 mg/kg produced 9% inhibition in vivo in data set [1]. For the same compound, the ED30 in data set [1] (po) is more than 128 mg/kg. Also, in data set [2] (po), the “Side-Effects Noted” value is recorded as “NONE”.

In data set [1], `c1ccc(Cc2nc3ccccc3n3ccnc23)cc1` returned an inhibition in vivo at 64 mg/kg of 0% and an inhibition in vivo at 128 mg/kg of 0%. Further, the ED30 in data set [1] (po) is more than 128 mg/kg. In addition, the “Side-Effects Noted” value in data set [2] (po) is reported as “NONE”.

As to `CC(C)Cc1nc2ccccc2n2ccnc12`, in data set [1], at 16 mg/kg the inhibition in vivo was 0%, 32 mg/kg produced 25% inhibition in vivo, the inhibition in vivo at 64 mg/kg was found to be 23% and testing at 128 mg/kg gave an inhibition in vivo of 36%. The ED30 in data set [1] (po) is approximately 70 mg/kg.

In data set [1], `FC(F)(F)c1nc2ccccc2n2ccnc12` [Compound 122, 4-trifluoromethylimidazo[1,2-a]quinoxaline] registered an inhibition in vivo at 8 mg/kg of 8%, an inhibition in vivo at 16 mg/kg of 29%, an inhibition in vivo at 32 mg/kg of 31% and an inhibition in vivo at 64 mg/kg of 39%. The inhibition in vivo at 128 mg/kg in data set [1] worked out at 44%. For the same compound, in data set [1] (po), the “anti-inflammatory activity relative to the ethyl analog” value is on record as “about half”, the ED30 was 35.1 mg/kg and the “reduction of carrageenin-induced edema / anti-edema activity” value is “significant reductions of carrageenin-induced edema without attendant side effects”. Also, the “dose associated with side effects, as multiple of ED30” value in data set [2] (po) is “does not show side effects at several multiples of its ED30”. Moreover, the “Side-Effects Noted” value in data set [2] (po, listed as CF3) was “NONE and did not produce any obvious untoward side effects”. In addition, the “Side-Effects Noted” value in data set [2] (po, listed as trifluoromethyl analog) is reported as “did not produce any side effects even at a dose of 128 mg/kg”. In data set [2] (po, result in words), the therapeutic index result is “very good therapeutic index” and the “toxicity relative to the non-fluorinated analog” value was “less toxic”.

In data set [1], `CCCCCCc1nc2ccccc2n2ccnc12` [Compound 115] had an inhibition in vivo at 64 mg/kg of 0% and an inhibition in vivo at 128 mg/kg of 27%. The ED30 in data set [1] (po) was approximately 128 mg/kg. In addition, the “Side-Effects Noted” value in data set [2] (po) is “NONE”.

In data set [1], `Cc1nc2ccccc2n2ccnc12` [Compound 110] registered an inhibition in vivo at 8 mg/kg of 12%, an inhibition in vivo at 16 mg/kg of 28%, an inhibition in vivo at 32 mg/kg of 33% and an inhibition in vivo at 64 mg/kg of 29%. Further, testing at 128 mg/kg in data set [1] gave an inhibition in vivo of 42%. In data set [1] (po), the ED30 is 40 mg/kg and the “reduction of carrageenin-induced edema / anti-edema activity” value was “significant reductions of carrageenin-induced edema without attendant side effects”. Further, the “Side-Effects Noted: rats died” value in data set [2] is 1/6.

In data set [1], `COCc1nc2ccccc2n2ccnc12` [Compound 125] gave an inhibition in vivo at 64 mg/kg of 1% and an inhibition in vivo at 128 mg/kg of 32%. For the same compound, the ED30 in data set [1] (po) was approximately 128 mg/kg.

The values are drawn from US4229452A, “Treatment of inflammatory disorders with 4-trifluoromethylimidazo[1,2-a]quinoxaline” (Westwood Pharmaceuticals, Inc., priority 1979, dated 1980).
